Three compounds from ChEMBL document CHEMBL1201862, “PubChem BioAssay data set” (2004) can be followed below.

Common to all, as to format: functional
The subject of one assay is BJ. Kind of assay: BJ-TERT fibroblast viability loss – cell-based, RAS-independent, luminescence, dose response (AID 1933). The conditions noted are these: Homo sapiens.
The target of assay [1] is T1, Apoptotic protease-activating factor 1 (Homo sapiens, UniProt O14727).
T1 sequence (O14727 whole entry): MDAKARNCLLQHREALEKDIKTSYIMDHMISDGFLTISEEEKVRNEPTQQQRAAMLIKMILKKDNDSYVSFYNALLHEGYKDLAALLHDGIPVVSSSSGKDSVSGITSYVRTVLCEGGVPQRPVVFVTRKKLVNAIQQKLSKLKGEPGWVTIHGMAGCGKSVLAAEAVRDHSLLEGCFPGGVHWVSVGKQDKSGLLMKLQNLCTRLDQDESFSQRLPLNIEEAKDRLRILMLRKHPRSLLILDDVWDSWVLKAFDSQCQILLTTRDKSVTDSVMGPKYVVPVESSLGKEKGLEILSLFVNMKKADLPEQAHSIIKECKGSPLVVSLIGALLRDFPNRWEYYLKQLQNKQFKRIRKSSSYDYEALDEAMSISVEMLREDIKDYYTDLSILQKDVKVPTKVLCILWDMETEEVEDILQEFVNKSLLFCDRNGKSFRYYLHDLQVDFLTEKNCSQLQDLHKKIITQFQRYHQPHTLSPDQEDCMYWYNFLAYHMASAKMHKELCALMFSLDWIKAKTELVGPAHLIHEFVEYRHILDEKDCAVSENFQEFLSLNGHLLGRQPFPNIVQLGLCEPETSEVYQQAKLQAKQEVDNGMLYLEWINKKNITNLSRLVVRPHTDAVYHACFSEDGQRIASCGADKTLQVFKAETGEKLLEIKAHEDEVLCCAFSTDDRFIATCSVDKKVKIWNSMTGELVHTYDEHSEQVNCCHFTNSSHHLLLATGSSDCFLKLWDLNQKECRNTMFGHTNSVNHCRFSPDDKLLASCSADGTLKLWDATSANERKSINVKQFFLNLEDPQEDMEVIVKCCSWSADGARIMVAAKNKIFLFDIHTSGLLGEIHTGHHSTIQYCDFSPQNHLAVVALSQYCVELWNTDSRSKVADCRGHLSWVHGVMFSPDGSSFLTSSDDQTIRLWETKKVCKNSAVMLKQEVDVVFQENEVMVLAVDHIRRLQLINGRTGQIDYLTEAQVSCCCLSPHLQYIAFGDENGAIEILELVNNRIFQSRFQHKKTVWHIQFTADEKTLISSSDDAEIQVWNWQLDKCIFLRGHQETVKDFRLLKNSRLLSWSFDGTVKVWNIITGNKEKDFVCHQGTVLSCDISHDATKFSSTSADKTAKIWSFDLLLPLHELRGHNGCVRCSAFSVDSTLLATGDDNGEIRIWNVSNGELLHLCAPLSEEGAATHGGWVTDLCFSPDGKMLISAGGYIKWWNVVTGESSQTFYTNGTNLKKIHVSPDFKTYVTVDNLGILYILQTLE

Assay [2] concerns the target T2, Sentrin-specific protease 7 (Homo sapiens, UniProt Q9BQF6).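 Further: Luminescence-based dose-response confirmation of ultra-high-throughput screening hits, measuring inhibition of SENP7.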
T2 sequence (Q9BQF6 whole entry): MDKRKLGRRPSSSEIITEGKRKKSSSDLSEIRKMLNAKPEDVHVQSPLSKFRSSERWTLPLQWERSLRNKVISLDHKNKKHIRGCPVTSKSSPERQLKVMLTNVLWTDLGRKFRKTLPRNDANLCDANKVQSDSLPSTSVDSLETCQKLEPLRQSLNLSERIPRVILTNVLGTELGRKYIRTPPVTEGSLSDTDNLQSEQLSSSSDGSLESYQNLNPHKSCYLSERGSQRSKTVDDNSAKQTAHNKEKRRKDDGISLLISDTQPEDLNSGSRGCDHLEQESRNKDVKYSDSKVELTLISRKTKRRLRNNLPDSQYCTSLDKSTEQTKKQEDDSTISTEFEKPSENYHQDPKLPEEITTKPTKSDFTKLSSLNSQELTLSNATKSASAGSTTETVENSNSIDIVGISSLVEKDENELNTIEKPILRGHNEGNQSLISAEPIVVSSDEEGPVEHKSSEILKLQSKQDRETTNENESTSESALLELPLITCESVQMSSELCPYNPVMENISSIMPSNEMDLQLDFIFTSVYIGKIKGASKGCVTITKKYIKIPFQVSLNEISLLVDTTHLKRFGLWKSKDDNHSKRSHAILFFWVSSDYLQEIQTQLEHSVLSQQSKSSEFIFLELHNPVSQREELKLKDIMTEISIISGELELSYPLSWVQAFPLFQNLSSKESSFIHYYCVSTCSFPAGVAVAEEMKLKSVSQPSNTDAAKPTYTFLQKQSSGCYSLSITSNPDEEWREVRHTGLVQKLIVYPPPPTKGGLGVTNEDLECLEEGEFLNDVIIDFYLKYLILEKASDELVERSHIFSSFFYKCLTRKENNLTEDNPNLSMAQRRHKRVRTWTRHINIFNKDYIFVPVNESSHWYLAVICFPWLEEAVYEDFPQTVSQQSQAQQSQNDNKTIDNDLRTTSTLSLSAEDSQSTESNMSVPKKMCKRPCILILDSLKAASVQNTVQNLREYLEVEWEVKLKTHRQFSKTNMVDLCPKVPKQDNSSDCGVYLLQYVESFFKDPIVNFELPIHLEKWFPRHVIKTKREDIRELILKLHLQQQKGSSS

Assay [3] addresses Mitogen-activated protein kinase 9 (Homo sapiens, UniProt P45984).
Assay [4] deals with Death-associated protein kinase 3 (Homo sapiens, UniProt O43293).
For assay [5], the target named is BDNF/NT-3 growth factors receptor (Homo sapiens, UniProt Q16620).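 Further: NTRK2 measured as one member of a broad kinome-wide kinase profiling panel.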
Assay [6] concerns the target Tyrosine-protein kinase Lyn (Homo sapiens, UniProt P07948).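 Further: lyn as one member of a kinase panel.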
For assay [7], the target named is Serine/threonine-protein kinase PAK 1 (Homo sapiens, UniProt Q13153).
Assay [8] concerns the target Serine/threonine-protein kinase D2 (Homo sapiens, UniProt Q9BZL6).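 Further: measured against PRKD2 as one member of a kinome-wide kinase profiling panel.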
Another assay addresses Aurora kinase A (Homo sapiens, UniProt O14965).
Assay [9] has as its target Casein kinase II subunit alpha (Homo sapiens, UniProt P68400).

Structures are written as SMILES. Active and inactive are the calls of the source.

A word on the EC50: it is the concentration at which the effect is half-maximal. What is called IC50 is the concentration at which inhibition is half-maximal. As usually defined, the Ki is a dissociation constant, usually derived from enzyme kinetics or from competition with a known ligand.

Chain of Death-associated protein kinase 3 (O43293 whole entry): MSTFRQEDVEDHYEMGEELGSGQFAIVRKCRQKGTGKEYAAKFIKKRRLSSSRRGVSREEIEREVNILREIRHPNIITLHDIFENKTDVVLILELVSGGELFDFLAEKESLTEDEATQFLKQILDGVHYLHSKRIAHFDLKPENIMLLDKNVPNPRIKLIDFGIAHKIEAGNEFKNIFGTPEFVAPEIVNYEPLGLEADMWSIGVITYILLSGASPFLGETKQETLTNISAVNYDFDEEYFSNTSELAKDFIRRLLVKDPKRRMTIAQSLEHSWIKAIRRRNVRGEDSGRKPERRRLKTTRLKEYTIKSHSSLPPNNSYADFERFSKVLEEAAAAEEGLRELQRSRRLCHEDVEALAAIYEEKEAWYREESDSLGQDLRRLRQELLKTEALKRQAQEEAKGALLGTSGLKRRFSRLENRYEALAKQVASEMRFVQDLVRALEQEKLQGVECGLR
Chain of Serine/threonine-protein kinase D2 (Q9BZL6 whole entry): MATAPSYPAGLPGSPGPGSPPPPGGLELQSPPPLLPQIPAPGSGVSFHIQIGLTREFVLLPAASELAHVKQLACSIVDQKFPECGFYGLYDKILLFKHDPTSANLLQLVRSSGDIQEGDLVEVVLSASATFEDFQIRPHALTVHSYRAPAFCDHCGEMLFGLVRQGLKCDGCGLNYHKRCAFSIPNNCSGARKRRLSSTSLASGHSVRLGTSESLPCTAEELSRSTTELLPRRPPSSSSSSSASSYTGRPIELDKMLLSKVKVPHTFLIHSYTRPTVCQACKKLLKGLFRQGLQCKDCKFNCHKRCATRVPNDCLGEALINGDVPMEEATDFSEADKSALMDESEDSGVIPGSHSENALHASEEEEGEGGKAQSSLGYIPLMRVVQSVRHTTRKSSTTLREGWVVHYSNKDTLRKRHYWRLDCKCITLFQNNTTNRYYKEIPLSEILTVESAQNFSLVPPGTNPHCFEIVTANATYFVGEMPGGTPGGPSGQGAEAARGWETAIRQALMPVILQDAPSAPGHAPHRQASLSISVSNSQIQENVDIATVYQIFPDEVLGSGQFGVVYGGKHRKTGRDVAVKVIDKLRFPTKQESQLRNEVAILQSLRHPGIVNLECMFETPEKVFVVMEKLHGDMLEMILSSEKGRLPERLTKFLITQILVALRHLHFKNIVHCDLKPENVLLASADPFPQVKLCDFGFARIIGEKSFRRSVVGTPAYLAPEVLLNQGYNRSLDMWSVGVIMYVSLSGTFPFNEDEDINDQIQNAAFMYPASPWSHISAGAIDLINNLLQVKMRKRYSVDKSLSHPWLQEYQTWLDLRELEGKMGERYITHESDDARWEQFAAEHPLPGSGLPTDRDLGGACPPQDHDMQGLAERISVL
Chain of Casein kinase II subunit alpha (P68400 whole entry): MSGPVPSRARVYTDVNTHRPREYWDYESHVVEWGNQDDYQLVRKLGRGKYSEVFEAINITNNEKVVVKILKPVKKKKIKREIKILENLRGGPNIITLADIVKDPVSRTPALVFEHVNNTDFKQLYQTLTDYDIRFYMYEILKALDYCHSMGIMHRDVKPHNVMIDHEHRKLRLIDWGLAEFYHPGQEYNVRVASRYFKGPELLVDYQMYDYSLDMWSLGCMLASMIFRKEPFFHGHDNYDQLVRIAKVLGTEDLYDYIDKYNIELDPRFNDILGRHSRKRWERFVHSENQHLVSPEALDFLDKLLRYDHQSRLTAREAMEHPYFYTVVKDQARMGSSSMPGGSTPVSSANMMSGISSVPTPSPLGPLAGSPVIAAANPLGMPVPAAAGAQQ
Chain of Aurora kinase A (O14965 whole entry): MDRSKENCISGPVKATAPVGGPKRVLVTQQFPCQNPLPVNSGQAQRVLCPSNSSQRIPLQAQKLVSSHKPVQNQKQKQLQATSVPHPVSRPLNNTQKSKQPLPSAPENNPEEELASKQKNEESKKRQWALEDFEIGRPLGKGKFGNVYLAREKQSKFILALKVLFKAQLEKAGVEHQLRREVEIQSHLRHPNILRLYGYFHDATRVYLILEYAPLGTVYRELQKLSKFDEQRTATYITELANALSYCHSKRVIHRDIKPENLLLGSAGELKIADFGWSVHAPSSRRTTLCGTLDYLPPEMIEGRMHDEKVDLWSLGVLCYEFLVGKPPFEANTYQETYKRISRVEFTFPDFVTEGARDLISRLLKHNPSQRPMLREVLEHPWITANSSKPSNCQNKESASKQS
Chain of Serine/threonine-protein kinase PAK 1 (Q13153 whole entry): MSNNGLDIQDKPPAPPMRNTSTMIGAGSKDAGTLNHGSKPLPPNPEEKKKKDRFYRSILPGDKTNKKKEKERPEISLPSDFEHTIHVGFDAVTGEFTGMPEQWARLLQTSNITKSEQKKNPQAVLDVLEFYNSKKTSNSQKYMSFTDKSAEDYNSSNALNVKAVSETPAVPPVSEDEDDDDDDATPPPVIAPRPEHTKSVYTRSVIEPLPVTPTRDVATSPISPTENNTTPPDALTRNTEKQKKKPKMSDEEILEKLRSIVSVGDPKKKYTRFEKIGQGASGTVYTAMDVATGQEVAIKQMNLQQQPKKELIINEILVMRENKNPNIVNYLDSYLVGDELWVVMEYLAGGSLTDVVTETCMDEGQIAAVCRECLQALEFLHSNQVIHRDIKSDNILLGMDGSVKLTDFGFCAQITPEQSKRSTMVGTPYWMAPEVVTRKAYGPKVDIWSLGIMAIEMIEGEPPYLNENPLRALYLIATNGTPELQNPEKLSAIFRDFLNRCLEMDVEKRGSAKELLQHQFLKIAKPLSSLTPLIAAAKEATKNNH
Chain of BDNF/NT-3 growth factors receptor (Q16620 whole entry): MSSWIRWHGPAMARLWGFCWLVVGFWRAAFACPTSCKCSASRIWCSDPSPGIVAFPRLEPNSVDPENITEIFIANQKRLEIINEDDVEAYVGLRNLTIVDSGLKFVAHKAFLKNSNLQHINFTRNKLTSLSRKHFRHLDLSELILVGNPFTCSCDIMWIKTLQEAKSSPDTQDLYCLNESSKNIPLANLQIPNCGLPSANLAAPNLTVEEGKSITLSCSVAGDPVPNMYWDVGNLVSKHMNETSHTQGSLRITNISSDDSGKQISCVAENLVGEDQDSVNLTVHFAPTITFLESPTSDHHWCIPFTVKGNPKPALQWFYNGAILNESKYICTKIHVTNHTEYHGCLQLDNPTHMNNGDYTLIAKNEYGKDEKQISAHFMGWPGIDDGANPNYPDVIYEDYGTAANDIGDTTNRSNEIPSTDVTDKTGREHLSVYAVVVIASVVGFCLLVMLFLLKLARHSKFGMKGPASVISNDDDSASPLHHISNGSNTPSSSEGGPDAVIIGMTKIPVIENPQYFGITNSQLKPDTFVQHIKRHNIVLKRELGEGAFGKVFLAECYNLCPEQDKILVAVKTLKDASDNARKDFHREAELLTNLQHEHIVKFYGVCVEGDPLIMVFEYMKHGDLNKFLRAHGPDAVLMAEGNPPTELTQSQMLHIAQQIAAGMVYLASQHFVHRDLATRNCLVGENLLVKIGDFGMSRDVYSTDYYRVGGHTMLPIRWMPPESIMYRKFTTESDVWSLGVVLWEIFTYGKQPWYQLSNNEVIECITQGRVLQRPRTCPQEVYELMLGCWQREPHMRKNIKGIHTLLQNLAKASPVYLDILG
Chain of Tyrosine-protein kinase Lyn (P07948 whole entry): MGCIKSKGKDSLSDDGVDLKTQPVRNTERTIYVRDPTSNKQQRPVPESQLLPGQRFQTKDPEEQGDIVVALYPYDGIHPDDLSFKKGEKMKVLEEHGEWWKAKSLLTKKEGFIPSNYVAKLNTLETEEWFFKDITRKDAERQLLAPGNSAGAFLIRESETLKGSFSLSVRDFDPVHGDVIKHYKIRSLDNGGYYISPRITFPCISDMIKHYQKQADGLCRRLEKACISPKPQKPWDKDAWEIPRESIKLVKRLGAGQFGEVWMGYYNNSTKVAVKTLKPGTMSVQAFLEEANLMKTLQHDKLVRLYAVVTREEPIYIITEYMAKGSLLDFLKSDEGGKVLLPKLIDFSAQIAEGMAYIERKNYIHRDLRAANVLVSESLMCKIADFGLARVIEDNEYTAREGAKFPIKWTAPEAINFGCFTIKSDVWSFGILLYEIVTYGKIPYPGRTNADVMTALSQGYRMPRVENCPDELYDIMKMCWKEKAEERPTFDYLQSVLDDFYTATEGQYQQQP
Chain of Mitogen-activated protein kinase 9 (P45984 whole entry): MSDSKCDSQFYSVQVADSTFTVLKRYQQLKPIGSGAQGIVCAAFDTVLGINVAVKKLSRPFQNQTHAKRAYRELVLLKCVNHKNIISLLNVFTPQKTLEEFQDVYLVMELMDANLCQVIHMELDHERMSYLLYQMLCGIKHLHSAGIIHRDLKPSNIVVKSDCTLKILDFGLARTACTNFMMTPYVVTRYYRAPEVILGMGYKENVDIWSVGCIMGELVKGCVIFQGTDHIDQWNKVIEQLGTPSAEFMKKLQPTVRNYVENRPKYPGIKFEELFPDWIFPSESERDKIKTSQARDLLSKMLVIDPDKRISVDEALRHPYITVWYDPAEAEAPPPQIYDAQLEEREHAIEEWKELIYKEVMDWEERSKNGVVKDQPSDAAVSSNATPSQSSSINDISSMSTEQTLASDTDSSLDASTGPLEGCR

Turning to `Cc1cc(N)c2cc(NC(=O)/C=C/c3ccccc3Cl)ccc2n1`, the EC50 in the assay on BJ is 2.62 µM (inconclusive). Besides, the IC50 in assay [1] is 9.95 µM (active).
Take `CCC(C)NC(=O)c1c(N)n(CCCOC)c2nc3ccccc3nc12` (configuration not stated): the values for the IC50 in assay [2] and in assay [1] were 1.36 µM (active) and 25.9 µM (active), respectively.
`CC(=NNC(=N)N)c1cc(NC(=O)NCCCCCCNC(=O)Nc2cc(C(C)=NNC(=N)N)cc(C(C)=NNC(=N)N)c2)cc(C(C)=NNC(=N)N)c1`: the Ki in [3] is > 3.98 µM (inactive); in assay [4], 0.158 µM (active); in assay [5] it was > 5.01 µM (inactive); in assay [6], > 1.58 µM (inactive); in assay [7], 0.398 µM (active); in assay [8] it was 0.631 µM (active). The Ki at Aurora kinase A is 5.01 µM (active); in [9], > 6.31 µM (inactive).
